From US7410979B2, “Synergistically effective combinations of dihaloacetamide compounds and interferon or ribavirin against HCV infections” (Rigel Pharmaceuticals, Inc., priority 2003, dated 2008)

Tested on: HCV NS3
Assay: Quantitative Western blot of HCV NS3 in replicon cells
Assay type: cell-based
Method: Certain exemplary synergistic combinations of the invention can also be tested for their ability to inhibit HCV replication using a quantitative Western blot analysis with antibodies specific for the HCV nonstructural protein NS3. Actively dividing 9-13 replicon cells can be seeded into 6-well plates at a density of 1×10^5 cells/well in a volume of 2 ml/well and can be incubated at 37° C. and 5% CO2 for 24 hours. Various concentrations of test compounds (in a volume of 10 ul) were can be added to the wells and the cells can be incubated for another 48 hours. Protein samples can be prepared from the cultured cells, then could be resolved on a SDS-PAGE gel and then could be transferred to a nitrocellulose membrane. The membrane can be blocked with 5% non-fat milk in PBS for 1 hour at room temperature. Primary antibody (anti NS3 antibody; Rigel Pharmaceuticals, South San Francisco, Calif.) incubation can be performed for 1 hour at room temperature, after which the membrane can be washed 3 times (for 15 min per time) with PBST (PBS plus 0.1% Tween 20). Horseradish peroxidase conjugated secondary antibody incubation can be performed for 1 hour at room temperature and the membrane can be washed 3 times (for 15 min per time) with PBST. The membrane can then be soaked in substrate solution (Pierce) and can then be exposed to a film or quantified using an imager. In this assay, the amount of test synergetic combination that yields a 50% reduction in the amount of NS3 protein translated as compared to a control sample (IC50) can be determined.

Molecule | effectiveness against HCV replication, as indicated by the reduction of HCV NS3 in replicon cells (FIG. 3(a), interferon-α alone at elevated concentrations) | HCV NS3 protein level (FIG. 2, 100 nM of compound I and 20 μm ribavirin) | synergy between compound I and ribavirin (FIG. 2, ribavirin at constant concentration, concentration of compound I varied) | synergistic effects on HCV replication (FIG. 3, compound I, interferon-α and ribavirin) | HCV NS3 (FIGS. 3(c) and 3(d), increasing concentrations of compound I in combination with interferon-α and ribavirin)
interferon-α | effective | – | – | – | –
O=C(Nc1ccnc(-c2cc(-c3c(Cl)cccc3Cl)no2)c1)C(Cl)Cl [compound I] | – | eliminated | synergy | synergistic effects | effectively eliminates
